According to PubChem BioAssay AID192 (DTP/NCI, 2004):
Several values for one entry are separate records, joined by “and”; a condition that tells them apart may be missing. Identical values can stand only once. Inconclusive results and toxic doses are left out.

System: BDF1 mice, B16 melanoma ip, median survival T/C
Assay: NCI In Vivo Anticancer Drug Screen. Data for tumor model B16 Melanoma (intraperitoneal) in B6D2F1 (BDF1) mice
Conditions: endpoint: median survival time, higher = longer survival
Summary of the method: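 Compounds were tested in mice carrying transplantable tumors. Survival or tumor size was recorded, and each value is the treated-group measurement (T) divided by that of the vehicle-treated control group (C).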

[1] = dose: 100.0 mg/kg/injection, schedule: Q01DX009 (ip), vehicle: saline with Tween-80
[2] = dose: 200.0 mg/kg/injection, schedule: Q01DX009 (ip), vehicle: saline with Tween-80
[3] = dose: 0.03 mg/kg/injection, schedule: Q01DX009 (ip), vehicle: saline
[4] = dose: 1.56 mg/kg/injection, schedule: Q01DX009 (ip), vehicle: saline with Tween-80
[5] = dose: 6.25 mg/kg/injection, schedule: Q01DX009 (ip), vehicle: saline with Tween-80
[6] = dose: 6.25 mg/kg/injection, schedule: Q01DX009 (ip), vehicle: saline
[7] = dose: 25.0 mg/kg/injection, schedule: Q01DX009 (ip), vehicle: saline
[8] = dose: 100.0 mg/kg/injection, schedule: Q01DX009 (ip), vehicle: saline

CC(=O)c1c(O)c(C)c(O)c2c1OC1=CC(=O)C(C(C)=O)C(=O)C12C (stereo not given)
T/C (dose: 5.0 mg/kg/injection, schedule: Q01DX009 (ip), vehicle: gum acacia): 107 % of control | T/C (dose: 6.25 mg/kg/injection, schedule: Q01DX009 (ip), vehicle: gum acacia): 92 % of control | T/C (dose: 12.5 mg/kg/injection, schedule: Q01DX009 (ip), vehicle: gum acacia): 108 % of control | T/C (dose: 20.0 mg/kg/injection, schedule: Q01DX009 (ip), vehicle: gum acacia): 100 % of control | T/C (dose: 40.0 mg/kg/injection, schedule: Q01DX009 (ip), vehicle: gum acacia): 102 % of control | T/C (dose: 50.0 mg/kg/injection, schedule: Q01DX009 (ip), vehicle: gum acacia): 108 % of control | T/C (dose: 80.0 mg/kg/injection, schedule: Q01DX009 (ip), vehicle: gum acacia): 105 % of control | T/C (dose: 100.0 mg/kg/injection, schedule: Q01DX009 (ip), vehicle: gum acacia): 97 % of control

O=C(O)C1OC1c1ccccc1 (stereo not given)
T/C [1]: 97 % of control | T/C [2]: 102 % of control | T/C (dose: 400.0 mg/kg/injection, schedule: Q01DX009 (ip), vehicle: saline with Tween-80): 100 % of control

CCC1CC(O)c2c(O)c3c(c(O)c2C1O)C(=O)c1cccc(O)c1C3=O (stereo not given) (tested in a mixture with another compound)
T/C (dose: 0.01 mg/kg/injection, schedule: Q01DX009 (ip), vehicle: saline): 95 % of control | T/C [3]: 86 % of control | T/C (dose: 0.06 mg/kg/injection, schedule: Q04DX003 (ip), vehicle: saline): 102 % of control | T/C (dose: 0.12 mg/kg/injection, schedule: Q04DX003 (ip), vehicle: saline): 109 % of control | T/C (dose: 15.0 micrograms/kg/injection, schedule: Q01DX009 (ip), vehicle: saline): 119 % of control

[Cl][Pt+2][Cl].[NH-]c1cc(Cl)c(Cl)c(Cl)c1[NH-]
T/C (dose: 1.25 mg/kg/injection, schedule: Q01DX009 (ip), vehicle: saline with Tween-80): 98 % of control | T/C (dose: 2.5 mg/kg/injection, schedule: Q01DX009 (ip), vehicle: saline with Tween-80): 104 % of control | T/C (dose: 5.0 mg/kg/injection, schedule: Q01DX009 (ip), vehicle: saline with Tween-80): 103 % of control | T/C (dose: 10.0 mg/kg/injection, schedule: Q01DX009 (ip), vehicle: saline with Tween-80): 110 % of control | T/C (dose: 20.0 mg/kg/injection, schedule: Q01DX009 (ip), vehicle: saline with Tween-80): 113 % of control | T/C (dose: 40.0 mg/kg/injection, schedule: Q01DX009 (ip), vehicle: saline with Tween-80): 117 % of control

COc1cc2c(Cc3ccc(OC)c(OC)c3)[n+](Cc3ccccc3)ccc2cc1NCc1ccccc1
T/C (dose: 0.78 mg/kg/injection, schedule: Q01DX009 (ip), vehicle: saline with Tween-80): 105 % of control | T/C [4]: 106 % of control | T/C (dose: 3.12 mg/kg/injection, schedule: Q01DX009 (ip), vehicle: saline with Tween-80): 110 % of control | T/C [5]: 110 % of control

Cc1cc(C)c(C(Cl)(Cl)Cl)c(C)c1Cl
T/C [4]: 93 % of control | T/C (dose: 3.13 mg/kg/injection, schedule: Q01DX009 (ip), vehicle: saline with Tween-80): 90 % of control | T/C [5]: 99 % of control | T/C (dose: 12.5 mg/kg/injection, schedule: Q01DX009 (ip), vehicle: saline with Tween-80): 103 % of control

Nc1ccn(C2OC(CO)C(O)C2O)c(=O)n1 (stereo not given)
T/C [6]: 120 % of control | T/C [7]: 98 % of control | T/C (dose: 80.0 mg/kg/injection, schedule: Q01DX009 (ip), vehicle: saline): 71 % of control | T/C [8]: 97 % of control | T/C (dose: 100.0 mg/kg/injection, schedule: Q04DX003 (ip), vehicle: saline with Tween-80): 100 % of control | T/C (dose: 200.0 mg/kg/injection, schedule: Q01DX009 (ip), vehicle: saline): 94 % of control | T/C (dose: 200.0 mg/kg/injection, schedule: Q04DX003 (ip), vehicle: saline with Tween-80): 92 % of control | T/C (dose: 250.0 mg/kg/injection, schedule: Q04DX009 (ip), vehicle: saline): 100 % of control | T/C (dose: 400.0 mg/kg/injection, schedule: Q04DX003 (ip), vehicle: saline with Tween-80): 92 % of control

Cc1cn(C2CC(F)C(CO)O2)c(=O)[nH]c1=O (stereo not given)
T/C [6]: 108 % of control | T/C (dose: 12.5 mg/kg/injection, schedule: Q01DX009 (ip), vehicle: saline): 103 % of control | T/C [7]: 110 % of control | T/C (dose: 50.0 mg/kg/injection, schedule: Q01DX009 (ip), vehicle: saline): 115 % of control | T/C [8]: 97 % of control

N#CCc1ccccc1C(=O)O
T/C (dose: 100.0 mg/kg/injection, schedule: Q04DX003 (ip), vehicle: gum acacia): 97 % of control

CCN(CC)CCCC(C)Nc1c2ccc(Cl)cc2nc2ccc(OC)cc12 (stereo not given)
T/C (dose: 8.0 mg/kg/injection, schedule: Q01DX009 (ip), vehicle: saline with Tween-80): 94 % of control and 102 % of control | T/C (dose: 8.0 mg/kg/injection, schedule: Q01DX009 (ip), vehicle: saline): 100 % of control | T/C (dose: 8.0 mg/kg/injection, schedule: Q01DX009 (ip), vehicle: suspension in saline): 103 % of control | T/C (dose: 16.0 mg/kg/injection, schedule: Q01DX009 (ip), vehicle: saline with Tween-80): 88 % of control and 107 % of control | T/C (dose: 16.0 mg/kg/injection, schedule: Q01DX009 (ip), vehicle: saline): 102 % of control | T/C (dose: 16.0 mg/kg/injection, schedule: Q01DX009 (ip), vehicle: suspension in saline): 105 % of control | T/C (dose: 20.0 mg/kg/injection, schedule: Q04DX003 (ip), vehicle: saline with Tween-80): 96 % of control | T/C (dose: 32.0 mg/kg/injection, schedule: Q01DX009 (ip), vehicle: saline with Tween-80): 116 % of control and 118 % of control | T/C (dose: 32.0 mg/kg/injection, schedule: Q01DX009 (ip), vehicle: saline): 104 % of control | T/C (dose: 32.0 mg/kg/injection, schedule: Q01DX009 (ip), vehicle: suspension in saline): 107 % of control | T/C (dose: 40.0 mg/kg/injection, schedule: Q04DX003 (ip), vehicle: saline with Tween-80): 105 % of control | T/C (dose: 80.0 mg/kg/injection, schedule: Q04DX003 (ip), vehicle: saline with Tween-80): 101 % of control | T/C (dose: 128.0 mg/kg/injection, schedule: Q01DX009 (ip), vehicle: saline with Tween-80): 152 % of control

CC(C)(C)OC(=O)n1cnc(CC(NC(=O)OCc2ccccc2)C(=O)O)c1 (stereo not given)
T/C (dose: 50.0 mg/kg/injection, schedule: Q01DX009 (ip), vehicle: saline with Tween-80): 98 % of control | T/C [1]: 89 % of control | T/C [2]: 92 % of control

CCc1c2cc3c(cc2cc2c4cc5c(cc4cc[n+]12)OCO5)OCO3 (tested in a mixture with another compound)
T/C (dose: 1.56 mg/kg/injection, schedule: Q01DX009 (ip), vehicle: Klucel (hydroxypropylcellulose) (HPC)): 103 % of control | T/C (dose: 3.13 mg/kg/injection, schedule: Q01DX009 (ip), vehicle: Klucel (hydroxypropylcellulose) (HPC)): 106 % of control | T/C (dose: 6.25 mg/kg/injection, schedule: Q01DX009 (ip), vehicle: Klucel (hydroxypropylcellulose) (HPC)): 106 % of control

Nc1ccc(OC(F)(F)C(F)Cl)cc1 (stereo not given)
T/C (dose: 100.0 mg/kg/injection, schedule: Q01DX009 (ip), vehicle: Klucel (hydroxypropylcellulose) (HPC)): 86 % of control | T/C (dose: 200.0 mg/kg/injection, schedule: Q01DX009 (ip), vehicle: Klucel (hydroxypropylcellulose) (HPC)): 96 % of control | T/C (dose: 400.0 mg/kg/injection, schedule: Q01DX009 (ip), vehicle: Klucel (hydroxypropylcellulose) (HPC)): 103 % of control

CN1C(=O)CN=C(c2ccccc2)c2cc(Cl)ccc21
T/C (dose: 0.02 mg/kg/injection, schedule: Q01DX009 (ip), vehicle: Klucel (hydroxypropylcellulose) (HPC)): 95 % of control | T/C [3]: 100 % of control | T/C (dose: 0.04 mg/kg/injection, schedule: Q01DX009 (ip), vehicle: Klucel (hydroxypropylcellulose) (HPC)): 233 % of control | T/C (dose: 0.05 mg/kg/injection, schedule: Q01DX009 (ip), vehicle: saline): 97 % of control | T/C (dose: 0.09 mg/kg/injection, schedule: Q01DX009 (ip), vehicle: Klucel (hydroxypropylcellulose) (HPC)): 104 % of control | T/C (dose: 0.1 mg/kg/injection, schedule: Q01DX009 (ip), vehicle: saline): 91 % of control | T/C (dose: 0.19 mg/kg/injection, schedule: Q01DX009 (ip), vehicle: Klucel (hydroxypropylcellulose) (HPC)): 109 % of control | T/C (dose: 0.39 mg/kg/injection, schedule: Q01DX009 (ip), vehicle: Klucel (hydroxypropylcellulose) (HPC)): 91 % of control and 105 % of control | T/C (dose: 5.0 micrograms/kg/injection, schedule: Q01DX009 (ip), vehicle: Klucel (hydroxypropylcellulose) (HPC)): 94 % of control | T/C (dose: 10.0 micrograms/kg/injection, schedule: Q01DX009 (ip), vehicle: Klucel (hydroxypropylcellulose) (HPC)): 93 % of control | T/C (dose: 20.0 micrograms/kg/injection, schedule: Q01DX009 (ip), vehicle: Klucel (hydroxypropylcellulose) (HPC)): 86 % of control | T/C (dose: 40.0 micrograms/kg/injection, schedule: Q01DX009 (ip), vehicle: Klucel (hydroxypropylcellulose) (HPC)): 94 % of control | T/C (dose: 90.0 micrograms/kg/injection, schedule: Q01DX009 (ip), vehicle: Klucel (hydroxypropylcellulose) (HPC)): 92 % of control
